Measurements: patent US10413504B2, “Intravaginal ring drug delivery system” (Merck Sharp & Dohme B.V., priority 2013, dated 2019)

Test: ENG and E2 solubility, diffusion coefficient and permeability in EVA copolymers (two-layer polymer slab, fit with Fick's 2nd law)
Conditions: ENG
Experimental: For the determination of the solubility concentration and diffusion coefficient a method was developed. The method consists in preparing polymer slab composites with one layer highly loaded with active ingredient (60 wt %) on top of a layer of placebo polymer. The two layers were first pressed separately in a hot press and thereafter combined, also using the press, into a two layer structure. The diffusion of the active ingredient from the loaded layer through the placebo layer is measured in time, for the active ingredient/polymer combination adequate analysis method. Thereafter the experimental diffusion data is fitted with a mathematical model based on Fick's 2nd law of diffusion in one direction. The differential equation is solved using trigonometrical series with the solubility concentration and diffusion coefficient as only unknown variables.

C#C[C@]1(O)CC[C@H]2[C@@H]3CCC4=CC(=O)CC[C@@H]4[C@H]3C(=C)C[C@@]21CC [ENG, etonogestrel]
Cs (solubility in EVA copolymer) (VA % 9): 0.4 mg/g
D (diffusion coefficient in EVA copolymer) (VA % 9): 2.29 ×10^−13 m^2/s
Cs (solubility in EVA copolymer) (VA % 15): 0.9 mg/g
D (diffusion coefficient in EVA copolymer) (VA % 15): 3.17 ×10^−13 m^2/s
Cs (solubility in EVA copolymer) (VA % 28): 3.22 mg/g
D (diffusion coefficient in EVA copolymer) (VA % 28): 4.80 ×10^−13 m^2/s
